What follows are compounds tested against T1, acetylcholine muscarinic M1 receptor (CHOnfat/hM1 cells) (Homo sapiens, UniProt P11229) (assay: FLIPR intracellular calcium assay for M1 positive allosteric modulator activity (acetylcholine EC20)). Settings: not given.
T1 construct: expressed in transfected cells; host or cells: CHOnfat (CHO cells; selected with Geneticin)
T1 sequence (P11229 1-460): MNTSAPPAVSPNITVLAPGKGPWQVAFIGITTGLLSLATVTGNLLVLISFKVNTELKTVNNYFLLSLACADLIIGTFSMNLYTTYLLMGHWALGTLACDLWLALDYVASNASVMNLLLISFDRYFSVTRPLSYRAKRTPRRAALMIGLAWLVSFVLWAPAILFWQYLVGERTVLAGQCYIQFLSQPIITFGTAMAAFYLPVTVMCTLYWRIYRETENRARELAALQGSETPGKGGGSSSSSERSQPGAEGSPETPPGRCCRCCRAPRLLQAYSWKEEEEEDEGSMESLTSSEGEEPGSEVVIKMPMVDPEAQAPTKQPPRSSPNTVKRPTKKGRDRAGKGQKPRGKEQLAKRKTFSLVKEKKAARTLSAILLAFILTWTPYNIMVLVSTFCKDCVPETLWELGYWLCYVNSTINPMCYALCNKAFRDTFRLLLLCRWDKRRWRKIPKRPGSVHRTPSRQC
Assay type: cell-based
Protocol: The assay studies the effect of one or several concentrations of test compounds on basal or acetylcholine-stimulated Ca^2+ levels using FLIPR.
Compounds are prepared and subjected to a preincubation period of 4 min. Thereafter, a single EC20 concentration of acetylcholine is added to each well (3 nM final). The intracellular Ca^2+ level of each sample is measured and compared to an acetylcholine control to determine any modulatory activity.
Cells: CHOnfat/hM1, hM2, hM3 or hM4 cells are plated 24 hr before the assay at a density of 18,000 cells/well (100 μL) in a 384 well plate. CHOnfat/hM1 and CHOnfat/hM3 Growth Medium: 90% DMEM (Hi Glucose); 10% HI FBS; 2 mM L-glutamine; 0.1 mM NEAA; Pen-Strep; and 1 mg/ml Geneticin, are added. For M2Gqi5CHOnfat and M4Gqi5CHOnfat cells, an additional 600 μg/ml hygromycin is added.
Equipment: 384 well plate, 120 μL addition plate; 96-well Whatman 2 ml Uniplate Incubator, 37° C., 5% CO2; Skatron EMBLA-384 Plate Washer; Multimek Pipetting System; Genesis Freedom 200 System; Mosquito System; Temo Nanoliter Pipetting System; and FLIPR^384 Fluorometric Imaging Plate Reader System are used.
Buffers. Assay Buffer: Hanks Balanced Salt Solution, with 20 mM Hepes, 2.5 mM Probenecid (Sigma P-8761) first dissolved in 1 N NaOH, 1% Bovine Serum Albumin (Sigma A-9647). Dye Loading Buffer: Assay Buffer plus 1% Fetal Bovine Serum and Fluo-4AM/Pluronic Acid Mixture. 2 mM Fluo-4AM ester stock in DMSO (Molecular Probes F-14202) Concentration of 2 μM in buffer for a final concentration of 1 μM in Assay. 20% Pluronic Acid Solution stock, with concentration of 0.04% in Buffer, 0.02% in Assay.
65 μL of 2 mM Fluo-4AM are mixed with 130 μL of 20% Pluronic Acid. The resulting solution and 650 μL FBS is added to the assay buffer for a total volume of 65 mL. Positive Controls: 4-Br-A23187: 10 mM in DMSO; final concentration 10 μM. Acetylcholine: 10 mM in water, working stock at both 20 μM and 30 μM in assay buffer, final concentration of 10 μM. This is used to check the maximum stimulation of the CHOK1/hM1 cells. 20 μM (2×) acetylcholine is added in the preincubation part of the assay, and the 30 μM (3×) stock is added in the second part. (EC20) Acetylcholine: 10 mM in water, working stock of 9 nM (3×), and final concentration in assay is 3 nM. This is used after the preincubation with test compounds. Addition of the EC20 Acetylcholine to each well with a test compound will ascertain any modulator activity. 24 wells contain 3 nM Acetylcholine alone as a control.
Screening Plate: Compounds are titrated in 96-well plates (columns 2-11), 100% DMSO, started at a concentration of 15 mM (150× stock concentration), and 3-fold serial dilutions using Genesis Freedom200 System. Four 96-well plates are combined into a 384-well plate using Mosquito Nanoliter Pipetting System by transferring 1 μl of serial diluted compounds to each well, and 1 mM acetylcholine (100× stock concentration) were added as a control. Using Temo, 49 μl assay buffer is added to each well of the 384-well plate right before assay.
In a 96-well Whatman 2 ml Uniplate, 9 nM Acetylcholine (3×) is pipetted into wells corresponding to the screening compounds, and into control wells. The 30 μM acetylcholine control (3×) is added into control wells, and the 3× agonist plate is transferred into a 384 well plate.
Cells are washed three times with 100 μL of buffer, leaving 30 μL of buffer in each well. Using Multimek, 30 μL of Dye Loading Buffer is added into each well and incubated at 37° C., 5% CO2 for up to one hr.
After 60 min, the cells are washed three times with 100 μL of buffer, leaving 30 μL of buffer in each well. The cell plate, screening plate, and agonist addition plates are placed on the platform in the FLIPR and the door closed. A signal test to check background fluorescence and basal fluorescence signal is performed. Laser intensity is adjusted if necessary. […]
In the case of N#CC1(c2ccccn2)CCN(Cc2cc(C(=O)N[C@H]3CCOC[C@@H]3O)c(=O)n3ccccc23)CC1 (racemic) [Example 7, rac-1-[(4-Cyano-4-pyridin-2-ylpiperidin-1yl)methyl]-N-[(3R,4S)-3-hydroxytetrahydro-2H-pyran-4-yl]-4-oxo-4H-quinolizine-3-carboxamide], the EC50 is reported as 25 nM.
C[C@]1(O)CCCC[C@@H]1NC(=O)c1cc(CN2CCC(C#N)(c3ccccn3)CC2)c2ccccn2c1=O (racemic) [Example 14, rac-1-[(4-Cyano-4-pyridin-2-ylpiperidin-1-yl)methyl]-N-[(1R,2R)-2-hydroxy-2-methylcyclohexyl]-4-oxo-4H-quinolizine-3-carboxamide] showed an EC50 of 93 nM.
N#CC1(c2ccccc2)CCN(Cc2cc(C(=O)N[C@@H]3CCOC[C@H]3O)c(=O)n3ccccc23)CC1 [Example 9, 1-[(4-Cyano-4-phenylpiperidin-1-yl)methyl]-N-[(3S,4R)-3-hydroxytetrahydro-2H-pyran-4-yl]-4-oxo-4H-quinolizine-3-carboxamide] showed an EC50 of 530 nM.
For N#CC1(c2ncc(Br)cc2Br)CCN(Cc2cc(C(=O)N[C@H]3CCOC[C@@H]3O)c(=O)n3ccccc23)CC1 [Example 10, 1-{[4-Cyano-4-(3,5-dibromopyridin-2-yl)piperidin-1-yl]methyl}-N-[(3R,4S)-3-hydroxytetrahydro-2H-pyran-4-yl]-4-oxo-4H-quinolizine-3-carboxamide], the EC50 was 14 nM.
Work on N#CC1(c2ccccc2)CCN(Cc2cc(C(=O)N[C@H]3COCC[C@@H]3O)c(=O)n3ccccc23)CC1 [Example 11, 1-[(4-Cyano-4-phenylpiperidin-1-yl)methyl]-N-[(3S,4S)-4-hydroxytetrahydro-2H-pyran-3-yl]-4-oxo-4H-quinolizine-3-carboxamide] yielded an EC50 of 560 nM.
N#CC1(c2ccccc2Br)CCN(Cc2cc(C(=O)N[C@H]3CCCC[C@@H]3O)c(=O)n3ccccc23)CC1 [Example 12] gave an EC50 of 24 nM.

Same assay, conditions: CHOnfat/hM1 cells, 4 min preincubation, then EC20 acetylcholine (3 nM final), FLIPR Ca2+; read-out: IP Value (inflection point)
In the case of N#CC1(c2ccccn2)CCN(Cc2cc(C(=O)N[C@H]3COCC[C@@H]3O)c(=O)n3ccccc23)CC1 (racemic) [Example 8, rac-1-[(4-Cyano-4-pyridin-2-ylpiperidin-1yl)methyl]-N-[(3R,4R)-4-hydroxytetrahydro-2H-pyran-3-yl]-4-oxo-4H-quinolizine-3-carboxamide], the EC50 is reported as 220 nM.
Compound N#CC1(c2ccccn2)CCN(Cc2cc(C(=O)N[C@H]3CCCC[C@@H]3Br)c(=O)n3ccccc23)CC1 (racemic) [Example 13, rac-N-[(1R,2R)-2-Bromocyclohexyl)-1-[(4-cyano-4-pyridin-2-ylpiperidin-1-yl)methyl]-4-oxo-4H-quinolizine-3-carboxamide] has an EC50 of 480 nM.
CS[C@H]1CCCC[C@@H]1NC(=O)c1cc(CN2CCC(C#N)(c3ccccn3)CC2)c2ccccn2c1=O (racemic) [Example 16, rac-1-[(4-Cyano-4-pyridin-2-ylpiperidin-1-yl)methyl]-N-[(1R,2R)-2-(methylthio)cyclohexyl]-4-oxo-4H-quinolizine-3-carboxamide] showed an EC50 of 180 nM.
Compound C[S@@+]([O-])[C@H]1CCCC[C@@H]1NC(=O)c1cc(CN2CCC(C#N)(c3ccccn3)CC2)c2ccccn2c1=O (racemic) [Example 17, rac-1-[(4-Cyano-4-pyridin-2-ylpiperidin-1-yl)methyl]-N-{(1R,2R)-2-[(S)-methylsulfinyl]cyclohexyl}-4-oxo-4H-quinolizine-3-carboxamide] has an EC50 of 2600 nM.
CS(=O)(=O)[C@H]1CCCC[C@@H]1NC(=O)c1cc(CN2CCC(C#N)(c3ccccn3)CC2)c2ccccn2c1=O (racemic) [Example 18, rac-1-[(4-Cyano-4-pyridin-2-ylpiperidin-1-yl)methyl]-N-[(1R,2R)-2-(methylsulfonyl)cyclohexyl]-4-oxo-4H-quinolizine-3-carboxamide] gave an EC50 of 800 nM.
C[C@H]1COCC[C@@H]1NC(=O)c1cc(CN2CCC(C#N)(c3ccccn3)CC2)c2ccccn2c1=O (racemic) [Example 21, rac-1-[(4-Cyano-4-pyridin-2-ylpiperidin-1-yl)methyl]-N-[(3R,4S)-3-methyltetrahydro-2H-pyran-4-yl]-4-oxo-4H-quinolizine-3-carboxamide] showed an EC50 of 380 nM.
N#CC1(c2ccccn2)CCN(Cc2cc(C(=O)NC3CCOCC3)c(=O)n3ccccc23)CC1 [Example 1, 1-[(4-Cyano-4-pyridin-2-ylpiperidin-1-yl)methyl]-4-oxo-4H—N-(tetrahydro-2H-pyran-4-yl)-4H-quinolizine-3-carboxamide] gave an EC50 of 340 nM.
Compound O=C(N[C@H]1CCCC[C@@H]1O)c1cc(Cc2ccc(Br)cn2)c2ccccn2c1=O [Example 2, 1-[(5-Bromopyridin-2-yl)methyl]-N-[(1S,2S)-2-hydroxycyclohexyl]-4-oxo-4H-quinolizine-3-carboxamide] has an EC50 of 105 nM.
In the case of Cn1cc(-c2ccc(Cc3cc(C(=O)N[C@H]4CCCC[C@@H]4O)c(=O)n4ccccc34)nc2)cn1 [Example 3, N-[(1S,2S)-2-Hydroxycyclohexyl]-{-[5-(1-methyl-1H-pyrazol-4-yl)pyridine-2-yl]methyl}-4-oxo-4H-quinolizine-3-carboxamide], the EC50 is reported as 15 nM.
Compound O=C(N[C@H]1CCCC[C@@H]1O)c1cc(Cc2ccc(-n3cccn3)cn2)c2ccccn2c1=O [Example 4, N-[(1S,2S)-2-Hydroxycyclohexyl]-4-oxo-1-{[5-(1H-pyrazol-1-yl)pyridine-2-yl]methyl}-4H-quinolizine-3-carboxamide] has an EC50 of 444 nM.
Compound O=C(N[C@H]1CCCC[C@@H]1O)c1cc(CN2CCN(c3ccc(C(F)F)nc3)CC2)c2ccccn2c1=O [Example 5, 1-({4-[6-(Difluoromethyl)pyridine-3-yl]piperazin-1-yl}methyl)-N-[(1S,2S)-2-hydroxycyclohexyl]-4-oxo-4H-quinolizine-3-carboxamide] has an EC50 of 210 nM.
With Cn1cc(N2CCN(Cc3cc(C(=O)N[C@H]4CCCC[C@@H]4O)c(=O)n4ccccc34)CC2=O)cn1 [Example 6, N-[(1S,2S)-2-Hydroxycyclohexyl]-1-{[4-(1-methyl-1H-pyrazol-4-yl)-3-oxopiperazin-1-yl]methyl}-4-oxo-4H-quinolizine-3-carboxylate] the EC50 was 170 nM.
With N#CC1(c2ccccn2)CCN(Cc2cc(C(=O)N[C@@H]3CCCCC3=O)c(=O)n3ccccc23)CC1 [Example 15, 1-[(4-Cyano-4-pyridin-2-ylpiperidin-1-yl)methyl]-4-oxo-N-[(1R)-2-oxocyclohexyl]-4H-quinolizine-3-carboxamide] the EC50 was 660 nM.
In the case of N#CC1(c2ccccn2)CCN(Cc2cc(C(=O)NC3CCCNC3)c(=O)n3ccccc23)CC1 (centres unmarked) [Example 19, 1-[(4-Cyano-4-pyridin-2-ylpiperidin-1-yl)methyl]-4-oxo-N-piperidin-3-yl-4H-quinolizine-3-carboxamide], the EC50 is reported as 1800 nM.

Reference: patent publication US8754220B2, “Quinolizidinone carboxamide M1 receptor positive allosteric modulators” (Merck Sharp & Dohme Corp., priority 2009, dated 2014)
